Data as given in patent US12668599B2, “Heterobifunctional compounds and methods of treating disease” (Halda Therapeutics OpCo, Inc., priority 2023, dated 2026).
Like-named read-outs stand apart in the source and are kept apart here.

Key:
[1] = Stability analysis of Crystal Form A and Crystal Form B in solvent suspensions (XRPD); assay type: physicochemical; conditions: suspensions in EtOH, Acetone, Acetonitrile, THF/Heptane at 25° C. and 50° C. for 1 week
Method: The obtained suspensions were stirred at 25° C. and 50° C. for 1 week, respectively. Solid parts (wet cakes) were isolated by centrifugation filtration at […] temperature and investigated by XRPD.

[2] = test system: VCaP cells; assay: Cellular growth inhibition assay for VCaP cells (CellTiter-Glo 2.0, 72 hours); assay type: cell-based, human; conditions: for GI50: Homo sapiens, VCaP, 72 h, CellTiter-Glo 2.0
[3] = biological target: T1, androgen receptor and BRD4 protein (Homo sapiens, UniProt O60885+P10275); assay: Tumor TR-FRET trimer assay on tumors of the PK/PD Castrate VCaP model; assay type: in vivo, CB17.SCID mice; conditions: PK/PD Castrate VCaP Tumor Xenograft Model; Compound II-5 and Compound B at the same dose and dosing frequency, FIG. 20
T1 construct: Tumors obtained from the Castrate VCaP Model were lysed; from tissue; host or cells: VCaP tumour xenografts grown in castrated CB17.SCID mice
Method: 5M VCaP cells were subcutaneously implanted into CB17.SCID mice in 50% Matrigel (Corning). Mice were castrated under anesthesia once tumor volumes reached 100 mm^3. Tumors were then allowed to reach an average of approximately 150 mm^3 before randomization into efficacy arms. Tumors were measured twice weekly for Tumor Growth Inhibition (TGI) calculation. For PK/PD analysis, tumors were allowed to reach an average of 400 mm^3, before dosing the mice with test compound by oral gavage (n=5) for seven days. Mice were sacrificed 24 hours following the final dose, and tumors were harvested for downstream analysis. Plasma samples were collected from all dosed mice 2 hours following the final dose to determine test compound exposure by LC-MS/MS. […] the United States Food and Drug Administration for treatment of prostate cancer ([…]).
Tumors obtained from the Castrate VCaP Model were lysed in Cell Signaling Technology lysis buffer supplemented with protease/phosphatase inhibitors and nuclease. Each tumor was lysed in 10 μL of lysis buffer per mg of tumor and placed in a TissueLyser for 4 minutes at 20 Hz. Each sample was spun down at 16000×g for 10 minutes, the supernatant was removed, and a BCA assay was run to quantify the total protein concentration in each sample. In a white opaque 384 well plate each sample was diluted in supplemented CST lysis buffer to 48 and 24 μg of protein in a total volume of 16 μL. 4 μL of a 1:1 mixture of anti-androgen receptor and anti-BRD4 antibodies with donor and acceptor fluorophores were mixed into each well containing tumor samples. The plate was spun down at 300×g for one minute, placed on a plate shaker at 400 RPM for 10 minutes, spun down at 300×g for one minute, then sealed with a plate seal and stored overnight. Approximately 16 hours after adding antibodies, the plate was read on an Envision plate reader. The ratiometric value of each well was calculated by dividing the acceptor signal by the donor signal and multiplying by 10,000.

[4] = test system: T-Rex 293 cell line SC3 cells having increased expression of androgen receptor protein due to exposure to doxycycline; assay: Cellular growth inhibition, T-Rex 293 SC3 cells with doxycycline-induced androgen receptor (CellTiter-Glo 2.0, 72 hours); assay type: cell-based; conditions: for GI50: T-Rex 293 SC3 cells with 10 ng/ml doxycycline (increased androgen receptor expression), 72 hours, CellTiter-Glo 2.0
[5] = Stability to storage of crystal form under relative humidity; assay type: physicochemical; conditions: 23-25° C., 23% RH to 53% RH, one week
[6] = test system: T47D cells; assay: Cellular growth inhibition assay for T47D cells (CellTiter-Glo 2.0, 72 hours); assay type: cell-based, human
Method: Exemplary compounds were tested for ability to inhibit the proliferation of T47D cells. T47D cells are a commercially available human breast cancer cell line.
T47D cells were purchased from American Type Cell Culture (ATCC Cat #HTB-133) and then seeded on poly-D-lysine coated, black clear-bottom 384-well plates at 3000/well in 25 μL Dulbecco's Modified Eagle Medium (DMEM) supplemented with 10% w/w Fetal bovine serum (FBS), 0.2 units/mL recombinant human insulin (Gibco Cat #12585014), and 1% w/w Pen-Strep. Pen-Strep is a commercially available mixture of penicillin G and streptomycin, which is used in mammalian cell culture media to prevent bacterial contamination. Dulbecco's Modified Eagle Medium (DMEM) supplemented with 10% w/w fetal bovine serum (FBS), 0.2 units/mL recombinant human insulin, and 1% w/w Pen-Strep is herein referred to as Treatment Medium. Following seeding of cells in the plates, the plates were spun at 300×g for 30 seconds, then equilibrated to room temperature for 30 minutes, and then deposited in a humidified tissue culture incubator maintained at 37° C. with 5% CO2.
At 24 hours after seeding of the cells, dilutions of test compound were prepared in DMSO and dissolved in Treatment Medium, to achieve a final DMSO concentration of 0.5% w/w, thereby providing the Test Compound Solution. A 25 μL aliquot of the Test Compound Solution was added to cells in the well plates. An equal volume of a solution containing DMSO and Treatment Medium was used as a negative control. Following treatment of cells with Test Compound Solution or said equal volume of a solution containing DMSO and Treatment Medium, the plates were spun at 300×g for 30 seconds, and then left in an incubator for 72 hours.
At the end of the treatment duration, cell viability was quantified with CellTiter-Glo 2.0 reagent (Promega Cat #G9243). For this purpose, plates were equilibrated to room temperature for 30 minutes, and then 25 μL of CellTiter-Glo 2.0 reagent was added to cells in the plate wells. Plates were then agitated on a shaker for two minutes at 500 rpm and subsequently incubated at room temperature for 10 minutes. Following incubation, the plates were spun at 3000×g for 30 seconds, then sealed with an optical adhesive cover, and luminescence readings were measured with an En Vision Plate Reader (Perkin Elmer).
Data was normalized using zero luminescence for baseline. A four-parameter non-linear regression curve fit was applied to dose-response data in GraphPad Prism data analysis software to determine the half-maximal growth inhibitory concentration (GI50) for each test compound.

[7] = test system: T-Rex 293 cell line SC3 cells lacking increased expression of androgen receptor protein; assay: Cellular growth inhibition, T-Rex 293 SC3 cells without doxycycline (CellTiter-Glo 2.0, 72 hours); assay type: cell-based; conditions: 72 h, T-Rex 293 SC3 cells not exposed to doxycycline (no increased androgen receptor expression)

T1 sequence (P10275 whole entry, other chains not shown): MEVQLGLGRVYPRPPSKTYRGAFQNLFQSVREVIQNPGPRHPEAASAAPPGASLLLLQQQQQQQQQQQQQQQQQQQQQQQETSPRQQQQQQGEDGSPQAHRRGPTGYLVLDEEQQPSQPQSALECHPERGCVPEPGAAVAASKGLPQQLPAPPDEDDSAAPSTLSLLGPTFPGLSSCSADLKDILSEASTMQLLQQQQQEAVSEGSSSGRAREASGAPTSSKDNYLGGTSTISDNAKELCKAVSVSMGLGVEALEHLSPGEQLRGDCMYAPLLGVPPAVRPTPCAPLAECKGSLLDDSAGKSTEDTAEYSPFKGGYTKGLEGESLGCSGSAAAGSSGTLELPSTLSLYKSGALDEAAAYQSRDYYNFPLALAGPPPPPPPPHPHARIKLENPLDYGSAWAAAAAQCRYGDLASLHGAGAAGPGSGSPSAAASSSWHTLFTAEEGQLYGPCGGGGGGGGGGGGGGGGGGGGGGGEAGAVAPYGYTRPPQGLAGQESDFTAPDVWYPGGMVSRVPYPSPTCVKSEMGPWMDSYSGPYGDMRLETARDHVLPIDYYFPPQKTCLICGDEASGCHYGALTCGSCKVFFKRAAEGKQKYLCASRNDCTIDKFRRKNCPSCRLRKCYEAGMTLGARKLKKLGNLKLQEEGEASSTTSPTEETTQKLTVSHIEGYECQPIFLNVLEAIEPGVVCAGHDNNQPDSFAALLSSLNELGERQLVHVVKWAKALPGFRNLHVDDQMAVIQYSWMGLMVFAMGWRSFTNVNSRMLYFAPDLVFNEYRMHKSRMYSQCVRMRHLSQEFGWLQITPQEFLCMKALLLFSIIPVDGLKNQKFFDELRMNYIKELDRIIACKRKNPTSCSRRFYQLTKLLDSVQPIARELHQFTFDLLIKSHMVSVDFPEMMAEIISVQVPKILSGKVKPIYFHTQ

SMILES	GI50 [2] [nM]	relative stability of crystal forms [1]	GI50 [7] [nM]	GI50 [4] [nM]	further results
COc1cc(O[C@H]2C(C)(C)[C@H](NC(=O)c3cnc(N4CCC5(CC4)CC(Oc4ccc(C6=N[C@@H](Cc7ncco7)c7nnc(C)n7-c7sc(C)c(C)c76)cc4)C5)nc3)C2(C)C)ccc1C#N [Compound II-5 in Crystal Form B, N-[(1r,3r)-3-(4-cyano-3-methoxy-phenoxy)-2,2,4,4-tetramethyl-cyclobutyl]-2-[2-[4-[(9S)-4,5,13-trimethyl-9-(oxazol-2-ylmethyl)-3-thia-1,8,11,12-tetrazatricyclo[8.3.0.0^2,6]trideca-2 (6),4,7,10,12-pentaen-7-yl]phenoxy]-7-azaspiro[3.5]nonan-7-yl]pyrimidine-5-carboxamide Crystal Form B]	–	converted to Compound II-5 in Crystal Form A	–	–	–
Cc1sc2c(c1C)C(c1ccc(OC3CC4(CCN(c5ncc(C(=O)N[C@H]6C(C)(C)[C@H](Oc7ccc(C#N)c(Cl)c7)C6(C)C)cn5)CC4)C3)cc1)=N[C@@H](Cc1ncco1)c1nnc(C)n1-2 [B, reference compound]	–	–	–	–	Ratio of GI50's ([2]; GI50 of the top compound in the pair divided by GI50 of the lower compound): 1.3; ternary complex formation between compound, androgen receptor, and BRD4 protein in tumors [3]: observed; Ratio of GI50's ([4]; GI50 of the top compound in the pair divided by GI50 of the lower compound, T-Rex 293 SC3 cells with doxycycline-induced androgen receptor): 5.3
COc1cc(O[C@H]2C(C)(C)[C@H](NC(=O)c3cnc(N4CCC5(CC4)CC(Oc4ccc(C6=N[C@@H](Cc7ncco7)c7nnc(C)n7-c7sc(C)c(C)c76)cc4)C5)nc3)C2(C)C)ccc1C#N [Compound II-5 in Crystal Form A, N-[(1r,3r)-3-(4-cyano-3-methoxy-phenoxy)-2,2,4,4-tetramethyl-cyclobutyl]-2-[2-[4-[(9S)-4,5,13-trimethyl-9-(oxazol-2-ylmethyl)-3-thia-1,8,11,12-tetrazatricyclo[8.3.0.0^2,6]trideca-2 (6),4,7,10,12-pentaen-7-yl]phenoxy]-7-azaspiro[3.5]nonan-7-yl]pyrimidine-5-carboxamide Crystal Form A]	–	superior stability	–	–	physical stability of crystalline form on storage [5]: no change in crystalline form was observed

Continued, in another order:

GI50 [2] [nM]	SMILES	relative stability of crystal forms [1]	GI50 [7] [nM]	GI50 [4] [nM]	further results
500 to 1500	COc1cc(O[C@H]2CC[C@H](NC(=O)c3ccc(N4CCC5(CN(c6ccc(C7=N[C@@H](C)c8nnc(C)n8-c8sc(C)c(C)c87)cc6)CC5(F)F)C4)nn3)CC2)ccc1C#N (some centres unmarked) [Compound I-103]	–	< 500	< 500	GI50 [6]: 500 to 1500 nM
< 500	COc1cc(O[C@H]2C(C)(C)[C@H](NC(=O)c3cnc(N4CCC5(CCN(c6ccc(C7=N[C@@H](C)c8nnc(C)n8-c8sc(C)c(C)c87)cc6)CC5)C4)nc3)C2(C)C)ccc1C#N [II-4, N-[3-(4-cyano-3-methoxy-phenoxy)-2,2,4,4-tetramethyl-cyclobutyl]-2-[8-[4-[(9S)-4,5,9,13-tetramethyl-3-thia-1,8,11,12-tetrazatricyclo[8.3.0.0^2,6]trideca-2 (6),4,7,10,12-pentaen-7-yl]phenyl]-2,8-diazaspiro[4.5]decan-2-yl]pyrimidine-5-carboxamide]	–	< 500	< 500	GI50 ([6]; Homo sapiens, T47D, 72 h): < 500 nM
